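Five compound concentrations were applied to cells in 96-well plates for 48 hours; endpoints were derived by simple linear interpolation of the resulting dose-response curve. The concentration for 50% growth inhibition is given as GI50.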 Active and inactive are the calls of the source. No stated cut-off is given here; in the data, active = GI50 up to about 1.1 µM and inactive = higher.
What was measured:
Assay in all cases: NCI tumour cell line growth inhibition, 48 h
[1] = tested on: 786-0
[2] = tested on: A498
[3] = tested on: A549
[4] = tested on: ACHN
[5] = tested on: CAKI-1
[6] = tested on: CCRF-CEM
[7] = tested on: COLO 205
[8] = tested on: DMS-114
[9] = tested on: HCC 2998
[10] = tested on: HCT-116
[11] = tested on: HCT-15
[12] = tested on: HL-60
[13] = tested on: HOP-18
[14] = tested on: HOP-62
[15] = tested on: HOP-92
[16] = tested on: HT-29
[17] = tested on: IGROV-1
[18] = tested on: K562
[19] = tested on: KM-20L2
[20] = tested on: KM12
[21] = tested on: LOX IMVI
[22] = tested on: LXFL 529
[23] = tested on: M14
[24] = tested on: M19-MEL
[25] = tested on: MOLT-4
[26] = tested on: Malme-3M
[27] = tested on: NCI-H23
[28] = tested on: NCI-H460
[29] = tested on: NCI-H522
[30] = tested on: OVCAR-3
[31] = tested on: OVCAR-5
[32] = tested on: OVCAR-8
[33] = tested on: RXF 631
[34] = tested on: SF-268
[35] = tested on: SF-295
[36] = tested on: SF-539
[37] = tested on: SK-MEL-28
[38] = tested on: SK-MEL-2
[39] = tested on: SK-OV-3
[40] = tested on: SN12C
[41] = tested on: SNB-19
[42] = tested on: SNB-78
[43] = tested on: SR
[44] = tested on: SW-620
[45] = tested on: TK-10
[46] = tested on: U-251
[47] = tested on: UACC-257
[48] = tested on: UACC-62
[49] = tested on: UO-31

Measured: GI50

Cc1nc(C(N)=O)c(N)n1CCN1CCN(C(=O)CCCCCCCCCCNC2NC=Nc3[nH]cnc32)CC1 (centres undefined)
> 100 µM: [11]
inactive: [1] > 100 µM | [2] > 100 µM | [3] 51.2 µM | [4] 29.4 µM | [5] > 10 µM | [6] 13.8 µM | [7] 73.5 µM | [8] 6.04 µM | [9] > 100 µM | [10] 43.4 µM | [12] 15.2 µM | [13] > 100 µM | [14] 91.6 µM | [15] 16.3 µM | [16] > 100 µM | [17] 52.6 µM | [18] 13.2 µM | [19] > 100 µM | [20] 41 µM | [21] 33.1 µM | [22] 11.2 µM | [23] 25.7 µM | [24] 34.4 µM | [25] 11.6 µM | [26] 31.2 µM | [27] 10.1 µM | [28] 32.7 µM | [29] > 10 µM | [30] 45.9 µM | [31] > 100 µM | [32] 33.9 µM | [33] > 100 µM | [34] 41.7 µM | [35] 41.1 µM | [36] > 100 µM | [37] 22 µM | [38] 14.3 µM | [39] > 100 µM | [40] 80.7 µM | [41] > 100 µM | [42] 39.5 µM | [43] 13.6 µM | [44] > 100 µM | [45] 90.2 µM | [46] > 100 µM | [47] 16.3 µM | [48] 29.8 µM | [49] > 100 µM
